This is an account of results in BindingDB's records for doi:10.1016/j.bmc.2013.03.004 (University of Oxford, 2013).

This assay has as its target T1, Lysosomal acid glucosylceramidase (Bos taurus, UniProt Q2KHZ8).
T1 sequence (Q2KHZ8 whole entry): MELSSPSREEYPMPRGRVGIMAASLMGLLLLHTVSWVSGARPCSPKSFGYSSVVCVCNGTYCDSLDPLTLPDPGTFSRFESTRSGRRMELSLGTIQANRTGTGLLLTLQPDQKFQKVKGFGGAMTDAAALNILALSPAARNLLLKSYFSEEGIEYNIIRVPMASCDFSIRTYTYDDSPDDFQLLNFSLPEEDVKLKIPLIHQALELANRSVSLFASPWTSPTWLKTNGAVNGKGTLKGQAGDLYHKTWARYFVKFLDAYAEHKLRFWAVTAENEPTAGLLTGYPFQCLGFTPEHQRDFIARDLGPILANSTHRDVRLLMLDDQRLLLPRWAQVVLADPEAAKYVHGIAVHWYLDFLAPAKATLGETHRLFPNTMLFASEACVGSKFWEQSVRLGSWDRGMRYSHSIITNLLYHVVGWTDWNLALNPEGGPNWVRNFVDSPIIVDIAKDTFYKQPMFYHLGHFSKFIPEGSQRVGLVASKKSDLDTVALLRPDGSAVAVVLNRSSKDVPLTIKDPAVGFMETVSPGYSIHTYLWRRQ
As to the kind of experiment: Inhibition of bovine liver beta-glucosidase.

In the case of `OC[C@H](O)[C@@H]1NC[C@@H]1O`, the midpoint of inhibition, the IC50, lay at 997 µM.
